# Tests used:
# [1] = ORAC assay with fluorescein probe (ORACFL), peroxyl radical scavenging assay; format: biochemical; conditions: for Ratio (ORACFL/ORACB-PE): chemicals, Table 1; for ORACFL: fluorescein probe, calculated based on equation 2, n > 3
# Procedure: (§1) In accordance with the subject invention the area under the curve (AUC) for the sample, standard, and blank are calculated as: AUC=0.5+f1/f0+f2/f0+f3/f0+f4/f0+ . . . +fi/f0 (1) Where f0=initial fluorescence reading at 0 minute, and fi is the fluorescence reading at time i. Typically, equation (1) is solved and the data analyzed in an electronic spreadsheet such as Microsoft Excel or other similar products or computer programs. The AUC is calculated for sample 60, standard 62 and blank 64. The net AUC is obtained by subtracting the AUC of blank 64 from sample 60. The relative ORAC value for sample 60, expressed in Trolox equivalents is calculated as: Relative ORAC value=[(AUCsample−AUCBlank)/(AUCTrolox−AUCBlank)]×(molarity of Trolox/molarity of sample) (2)
# Flavonoid compounds and β-phycoerythrin were purchased from Sigma (St. Louis, Mo.). Trolox, ascorbic acid and disodium fluorescein were obtained from Aldrich (Milwaukee, Wis.). 2,2′-azobis (2-amidino-propane) dihydrochloride (AAPH) was purchased from Wako Chemicals USA (Richmond, Va.). Various analyzed samples were also obtained. ORAC analyses were performed on a COBAS FARA II analyzer (Roche Diagnostic System Inc., Branchburg, N.J.; Excitation wavelength=493 nm and emission filter=515 nm).
# Ascorbic acid and flavonoids were directly dissolved in acetone/water mixture (50:50, v/v) and diluted with pH 7.4 phosphate buffer for analysis. The solid samples were initially ground in a mechanical mill to produce a fine power; then 0.5 grams were accurately weighed and 20 mL of acetone/water (50:50, v/v) extraction solvent was added. The mixture was shaken at 400 RPM at room temperature on an orbital shaker for one hour. The extracts were centrifuged at 14000 rpm for 15 min, and the supernatant was ready for analysis after appropriate dilution with buffer solution. For liquid samples, a 20 mL aliquot of sample was centrifuged for 15 min and the supernatant was ready for analysis after appropriate dilution. Blood plasma or serum was diluted 100 to 200 fold with pH 7.4 phosphate buffer before analysis. To measure the ORAC in non-protein fraction, protein was removed using 0.5 N perchloric acid (1:1; v:v; plasma:acid), the samples were then centrifuged at 140,000×g for 10 min at 4° C., and the supernatants were removed as the serum nonprotein fractions and appropriately diluted with pH 7.4 phosphate buffer before the analysis.
# Peroxyl radical scavenging assay. The COBAS FARA II was programmed to use a two-reagent system (Reaction Mode 3, P-I-SRI-A). The reaction mode pipetted and transferred the sample (20 μL), phosphate buffer (5 μL, 0.75 mM, pH 7.4), and main reagent (365 μL FL, 4.8×10^−8 M) into the main reagent wells of their respective cuvette rotor positions. With spinning of the rotor, the reagents are mixed and incubated for 30 s before recording the initial fluorescence (f0). After the rotor stops spinning, a start reagent (SRI), 8 μL of APPH (0.64M) plus 2 μL of the phosphate buffer is pipetted into the appropriate start reagent well in the curvette rotor. Next, the analyzer starts spinning, mixing of the sample/FL with AAPH reagent and the oxidative reaction starts. […] Between transfers, both sample and reagent transfer pipettes are washed with clean solution to eliminate sample cross contamination. Fluorescence readings are taken at 0.5 s and then every minute thereafter (f1, f2, f3 . . . ) for a duration of 30 min. If the fluorescence of the final reading has not declined by >95% from the first reading, the dilution of sample is adjusted accordingly and the sample is reanalyzed. To determine the maximum voltage for the photomultiplier tube, the AAPH reagent is omitted and is replaced with buffer, and the analysis is run for 10 min. FL and AAPH were prepared in a 0.75 mM phosphate buffer. FL working solution was routinely preincubated in a waterbath at 37° C. for 15 min before loading into the COBAS reagent rack.
# [2] = ORAC assay with B-phycoerythrin probe (ORACB-PE / ORACPE); format: biochemical; conditions: calculated based on equation 2, n > 3
# Procedure: In accordance with the published ORAC assay, a sample such as fresh fruit, blood senun, or an additive or supplement in powder form is prepared for extraction and extracted first in water and then in acetone. A protein based fluorescent probe, namely B-phycoerythrin (B-PE) is then added to the extract. A standard, having high antioxidant capacity, such as diluted grape seed extract (GSE) or TROLOX® (6-hydroxy-2,5,7,8-tetramethylchroman-2-carboxylic acid), a water soluble analog of vitamin E, is added to the extract to provide a comparison of the antioxidant capacity of the sample to the standard. The extract, the standard, and a blank sample are then loaded into the COBAS FARA II device and an initial fluorescence emission of the probe is taken. Next, AAPH, (2,2′-azobis (2-amidino-propane) dihydrochloride), which generates free radicals upon heating, is added to the extract of the sample and the standard and fluorescence emission readings are taken until a zero value is reached for the extract of the sample. To measure the protective effect of an antioxidant using the ORAC assay, the area under the fluorescence decay curve (AUC) of the sample is calculated and compared to that of the blank in which no antioxidant is present.
# After the fluorescent readings are taken, the ORAC values are calculated by using a regression equation between standard concentration 62, FIG. 7, and the net area under the B-PE decay curve of sample 60. ORAC values are typically expressed in μmole Trolox equivalent per liter or per gram.
# as §1
SMILES,Ratio (ORACFL/ORACB-PE) [1],ORACFL [1],ORACB-PE [2]
N[C@@H](CCC(=O)N[C@@H](CS)C(=O)NCC(=O)O)C(=O)O [Glutathione],1.94,0.62 ± 0.02 relative Trolox equivalent,0.32 ± 0.01 relative Trolox equivalent
O=C(O)/C=C/c1ccc(O)c(O)c1 [Caffeic Acid],3.12,4.37 ± 0.24 relative Trolox equivalent,1.40 ± 0.09 relative Trolox equivalent
O=C1O[C@H]([C@@H](O)CO)C(O)=C1O [Vitamin C],2.21,0.95 ± 0.02 relative Trolox equivalent,0.43 ± 0.03 relative Trolox equivalent
O=c1c(O)c(-c2ccc(O)c(O)c2)oc2cc(O)cc(O)c12 [Quercetin],2.11,4.38 ± 0.22 relative Trolox equivalent,2.07 ± 0.05 relative Trolox equivalent
O=c1c(-c2ccc(O)cc2)coc2cc(O)cc(O)c12 [Genistein],2.57,5.93 ± 0.45 relative Trolox equivalent,2.3 ± 0.16 relative Trolox equivalent
C[C@@H]1O[C@@H](Oc2c(-c3ccc(O)c(O)c3)oc3cc(O)cc(O)c3c2=O)[C@H](O)[C@H](O)[C@H]1O [Quercetrin],2.15,5.87 ± 0.49 relative Trolox equivalent,2.70 ± 0.18 relative Trolox equivalent

# — US7132296B2, “Method for assaying the antioxidant capacity of a sample” (Medical Products Manufacturing, LLC, priority 2002, dated 2006)
